Tests used:
[1] = test system: smallflower umbrella sedge; assay: Test C flooded paddy test; type: in vivo, Cyperus difformis; settings: for Plant response rating, Sedge, Umbrella: 500 g ai/ha, visual rating after 12 to 14 days
cocklebur = assay: Test C pre-/postemergence herbicide test; type: in vivo, Xanthium strumarium; settings: for Plant response rating, Cocklebur / Plant response rating (0 = no effect, 100 = complete control), Cocklebur: preemergence; for Plant response rating (0 = no effect, 100 = complete control), Cocklebur: 62 g ai/ha
Method in brief: (§1)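 Seeds were planted and sprayed preemergence with test chemicals in a non-phytotoxic solvent mixture containing surfactant; postemergence treatments went onto plants 2 to 18 cm tall (1- to 4-leaf stage). After 12 to 14 days in a greenhouse, injury was rated visually against untreated controls on a 0–100 scale.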

[2] = test system: common (oilseed) sunflower; assay: Test C pre-/postemergence herbicide test; type: in vivo, Helianthus annuus; settings: for Plant response rating, Sunflower / Plant response rating (0 = no effect, 100 = complete control), Sunflower: preemergence; for Plant response rating (0 = no effect, 100 = complete control), Sunflower: 62 g ai/ha
Method in brief: as §1

barnyardgrass = assay: Test C flooded paddy test; type: in vivo, Echinochloa crus-galli; settings: for Plant response rating, Barnyardgrass: 500 g ai/ha, visual rating after 12 to 14 days
Method in brief: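 Postemergence sprays applied to plants 2 to 18 cm tall (1- to 4-leaf stage); paddy species grown to 2-leaf stage under flooding. After 12 to 14 days in greenhouse, visual rating versus untreated controls on 0–100 scale (0 no effect, 100 complete control).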

yellow nutsedge = assay: Test C pre-/postemergence herbicide test; type: in vivo, Cyperus esculentus; settings: for Plant response rating, Nutsedge, Yellow / Plant response rating (0 = no effect, 100 = complete control), Nutsedge, Yellow: preemergence; for Plant response rating (0 = no effect, 100 = complete control), Nutsedge, Yellow: 62 g ai/ha
Method in brief: as §1

morningglory = assay: Test C pre-/postemergence herbicide test; type: in vivo, Ipomoea coccinea; set-up: key to Plant response rating, Morningglory: 0 = no effect, 100 = complete control; settings: for Plant response rating, Morningglory / Plant response rating (0 = no effect, 100 = complete control), Morningglory: preemergence; for Plant response rating (0 = no effect, 100 = complete control), Morningglory: 62 g ai/ha
Method in brief: as §1

rice = assay: Test B pre-/postemergence herbicide test; type: in vivo, Oryza sativa; settings: preemergence
Method in brief: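 Formulation: non-phytotoxic solvent mix with surfactant. Timing: preemergence on seed and postemergence on 2–18 cm plants, applied concurrently. Readout after 13–15 d greenhouse: visual 0–100 control rating against controls.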

velvetleaf = assay: Test C pre-/postemergence herbicide test; type: in vivo, Abutilon theophrasti; settings: for Plant response rating, Velvetleaf: preemergence
Method in brief: as §1

soybean = assay: Test C pre-/postemergence herbicide test; type: in vivo, Glycine max; settings: for Plant response rating, Soybean / Plant response rating (0 = no effect, 100 = complete control), Soybean: preemergence; for Plant response rating (0 = no effect, 100 = complete control), Soybean: 62 g ai/ha
Method in brief: as §1

pigweed = assay: Test C pre-/postemergence herbicide test; type: in vivo, Amaranthus retroflexus; settings: for Plant response rating, Pigweed / Plant response rating (0 = no effect, 100 = complete control), Pigweed: preemergence; for Plant response rating (0 = no effect, 100 = complete control), Pigweed: 62 g ai/ha
Method in brief: as §1

giant foxtail = assay: Test C pre-/postemergence herbicide test; type: in vivo, Setaria faberi; settings: for Plant response rating, Foxtail, Giant / Plant response rating (0 = no effect, 100 = complete control), Foxtail, Giant: preemergence; for Plant response rating (0 = no effect, 100 = complete control), Foxtail, Giant: 62 g ai/ha
Method in brief: as §1

bermudagrass = assay: Test C pre-/postemergence herbicide test; type: in vivo, Cynodon dactylon; settings: for Plant response rating (0 = no effect, 100 = complete control), Bermudagrass: 62 g ai/ha
Method in brief: as §1

[3] = 62 g ai/ha, scale 0 to 100 (0 no effect, 100 complete control)
[4] = 125 g ai/ha, scale of 0 to 100, 0 is no effect, 100 is complete control
[5] = 250 g ai/ha, scale of 0 to 100, 0 is no effect, 100 is complete control
[6] = scale 0 to 100 (0 no effect, 100 complete control)
[7] = 125 g ai/ha, scale 0 (no effect) to 100 (complete control), visual, 12 to 14 days
[8] = 125 g ai/ha, scale 0 (no effect) to 100 (complete control), visual, 12 to 14 days, preemergence
[9] = 250 g ai/ha, scale 0 to 100 (0 no effect, 100 complete control), visual, 12 to 14 days
[10] = Preemergence, 500 g ai/ha, scale 0 to 100, 0 no effect, 100 complete control

SMILES | Sedge, Umbrella plant response rating [1, 3] | Sedge, Umbrella plant response rating [1, 5] | Plant response rating, Sedge, Umbrella [1, 6] | Plant response rating (0 = no effect, 100 = complete control), Cocklebur (cocklebur) | Plant response rating, Cocklebur (cocklebur; [7]) | Plant response rating (0 = no effect, 100 = complete control), Sunflower [2] | Plant response rating, Sunflower [2, 7] | Barnyardgrass plant response rating (barnyardgrass; [3]) | Barnyardgrass plant response rating (barnyardgrass; [4]) | Barnyardgrass plant response rating (barnyardgrass; [5]) | Plant response rating, Barnyardgrass (barnyardgrass; [6]) | Plant response rating (0 = no effect, 100 = complete control), Nutsedge, Yellow (yellow nutsedge) | Plant response rating, Nutsedge, Yellow (yellow nutsedge; [7]) | Plant response rating (0 = no effect, 100 = complete control), Morningglory (morningglory) | Plant response rating, Morningglory (morningglory; [7]) | Plant response rating, Velvetleaf (velvetleaf; [7]) | Plant response rating (0 = no effect, 100 = complete control), Soybean (soybean) | Plant response rating, Soybean (soybean; [7]) | Plant response rating (0 = no effect, 100 = complete control), Pigweed (pigweed) | Plant response rating, Pigweed (pigweed; [7]) | also measured
CCC(=NO)c1cccc(NC(=O)c2cc(C(C)(C)C)nn2C)c1 [Compound 118] | 0 | 50 | 50 | 20 | 20 | 0 | 20 | 0 | 20 | 20 | 50 | 0 | 0 | 20 | 30 | 40 | 0 | 10 | 70 | 90 | Sedge, Umbrella plant response rating [1, 4]: 50; Plant response rating, Cocklebur (cocklebur; 31 g ai/ha, scale 0 to 100): 0; Plant response rating, Sunflower ([2]; 31 g ai/ha, scale 0 to 100): 0; Plant response rating, Nutsedge, Yellow (yellow nutsedge; 16 g ai/ha, scale 0 to 100, last section of Table C): 0; Plant response rating, Nutsedge, Yellow (yellow nutsedge; 31 g ai/ha, scale 0 to 100): 0; Plant response rating, Morningglory (morningglory; 31 g ai/ha, scale 0 to 100): 0; Plant response rating, Rice (rice; 125 g ai/ha, 0 to 100 scale, 0 is no effect, 100 is complete control): 0; Plant response rating, Velvetleaf (velvetleaf; 31 g ai/ha, scale 0 to 100): 0; Plant response rating, Soybean (soybean; 31 g ai/ha, scale 0 to 100): 0; Plant response rating, Pigweed (pigweed; 31 g ai/ha, scale 0 to 100): 20; Plant response rating, Foxtail, Giant (giant foxtail; 31 g ai/ha, scale 0 to 100): 0; Plant response rating (0 = no effect, 100 = complete control), Foxtail, Giant (giant foxtail): 0; Plant response rating, Foxtail, Giant (giant foxtail; [7]): 10; Plant response rating, Bermudagrass (bermudagrass; 16 g ai/ha, scale 0 to 100, 0 no effect, 100 complete control, last section of Table C (species set of preemergence test)): 0; Plant response rating, Bermudagrass (bermudagrass; 31 g ai/ha, preemergence, scale 0 to 100): 30; Plant response rating (0 = no effect, 100 = complete control), Bermudagrass (bermudagrass; preemergence): 90; Plant response rating, Bermudagrass (bermudagrass; [8]): 100
CCn1nc(C(C)(C)C)cc1C(=O)Nc1cccc(S(=O)(=O)C(F)(F)F)c1 [Compound 134] | 55 | 85 | 85 | 0 | 0 | 0 | 0 | 10 | 25 | 50 | 50 | 0 | 0 | 0 | 0 | 90 | 0 | 0 | 95 | 95 | Sedge, Umbrella plant response rating ([1]; 125 g ai/ha, scale 0 to 100 (0 no effect, 100 complete control)): 75; Plant response rating, Cocklebur (cocklebur; [9]): 0; Cocklebur plant response rating (cocklebur; [10]): 0; Sunflower plant response rating [2, 10]: 0; Nutsedge, Yellow plant response rating (yellow nutsedge; [10]): 0; Morningglory plant response rating (morningglory; [10]): 75; Plant response rating, Rice (rice; 500 g ai/ha, visual rating 0-100, 0 no effect, 100 complete control): 50; Velvetleaf plant response rating (velvetleaf; [10]): 100; Soybean plant response rating (soybean; [10]): 35; Pigweed plant response rating (pigweed; [10]): 100; Plant response rating (0 = no effect, 100 = complete control), Foxtail, Giant (giant foxtail): 0; Plant response rating, Foxtail, Giant (giant foxtail; [7]): 0; Plant response rating, Foxtail, Giant (giant foxtail; [9]): 0; Foxtail, Giant plant response rating (giant foxtail; [10]): 85; Plant response rating (0 = no effect, 100 = complete control), Bermudagrass (bermudagrass; preemergence): 80; Plant response rating, Bermudagrass (bermudagrass; [8]): 95; Plant response rating, Bermudagrass (bermudagrass; 250 g ai/ha, scale 0 to 100 (0 no effect, 100 complete control), visual, 12 to 14 days, preemergence): 95; Bermudagrass plant response rating (bermudagrass; [10]): 100

Reference: patent US20060069132A1, “Azolecarboxamide herbicides” (priority 2004, published 2006)
